Measurements taken from ChEMBL document CHEMBL6134891, “Thienopyrimidinone Derivatives as a GluN2B/C/D Biased, Positive Allosteric Modulator of the N-Methyl-d-Aspartate Receptor” (J Med Chem, 2025).
Values after ≈ are worked out from the molar mass of the structure shown.

biological target: Glutamate receptor ionotropic, NMDA 2D (Rattus norvegicus, UniProt Q62645); assay: not given; details: oocyte

Row | Structure (SMILES) | EC50
1 | C#CC1(F)CN(C(=O)Cn2cnc3sc(C)c(-c4cccc(Br)c4)c3c2=O)C1 | Not_active
2 | Cc1sc2ncn(CC(=O)N3CC[C@@H](O)C3)c(=O)c2c1-c1cccc(Br)c1 | Not_active

biological target: Glutamate receptor ionotropic, NMDA 2D (Rattus norvegicus, UniProt P35439+Q62645); assay: not given; details: not given

Row | Structure (SMILES) | EC50 [nM]
3 | Cc1sc2ncn(CC(=O)N3CC(C)(F)C3)c(=O)c2c1-c1ccc2c(c1)OC(F)(F)O2 | 13000
4 | Cc1sc2ncn(CC(=O)N3CC(C)(F)C3)c(=O)c2c1-c1cc(F)cc(Cl)c1 | 7400
5 | Cc1sc2ncn(CC(=O)N3CCC(C)C3)c(=O)c2c1-c1cccc(Br)c1 (stereo not drawn) | 13000
6 | Cc1sc2ncn(CC(=O)N3CC(C)(F)C3)c(=O)c2c1-c1ccc(F)c(Cl)c1 | 2100
7 | CCC1(F)CN(C(=O)Cn2cnc3sc(C)c(-c4cccc(Br)c4)c3c2=O)C1 | 3600
8 | CCCC1(F)CN(C(=O)Cn2cnc3sc(C)c(-c4cccc(Br)c4)c3c2=O)C1 | 11000
9 | CC1(F)CN(C(=O)Cn2cnc3sc(C(F)(F)F)c(-c4ccc(F)c(Br)c4)c3c2=O)C1 | 6100
10 | Cc1sc2ncn(CC(=O)N3CC(C)(F)C3)c(=O)c2c1-c1cccc(Br)c1 | 2800
11 | Cc1sc2ncn(CC(=O)N3CC(C)(F)C3)c(=O)c2c1-c1cccc(Cl)c1 | 4900
12 | CC1(F)CN(C(=O)Cn2cnc3sc(C#N)c(-c4ccc(F)c(Br)c4)c3c2=O)C1 | 890
13 | Cc1sc2ncn(CC(=O)N3CC(C)(F)C3)c(=O)c2c1-c1cccc(C(F)(F)F)c1 | 3800
14 | Cc1sc2ncn(CC(=O)N3CC(C)(F)C3)c(=O)c2c1-c1cc(Cl)ccc1F | 4500
15 | C#Cc1sc2ncn(CC(=O)N3CC(C)(F)C3)c(=O)c2c1-c1ccc(F)c(Br)c1 | 1100
16 | Cc1sc2ncn(CC(=O)N3CC(C)(C)C3)c(=O)c2c1-c1cccc(Br)c1 | 11000
17 | Cc1sc2ncn(CC(=O)N3CC(F)(C4CC4)C3)c(=O)c2c1-c1cccc(Br)c1 | 5400
18 | Cc1sc2ncn(CC(=O)N3CC(C)(F)C3)c(=O)c2c1-c1ccc(F)c(OC(C)C)c1 | 5800
19 | Cc1sc2ncn(CC(=O)N3CCC(F)(F)C3)c(=O)c2c1-c1cccc(Br)c1 | 11700
20 | Cc1sc2ncn(CC(=O)N3CCC(C)(F)C3)c(=O)c2c1-c1cccc(Br)c1 (stereo not drawn) | 13000

test system: not listed separately; assay: Efflux ratio of apparent permeability in MDCK-MDR1 cells; details: dog

Row | Structure (SMILES) | efflux ratio
21 | CC1(F)CN(C(=O)Cn2cnc3sc(C#N)c(-c4ccc(F)c(Br)c4)c3c2=O)C1 | 4.66

test system: not listed separately; assay: Stability in mouse plasma assessed as half life; details: not given

Row | Structure (SMILES) | half-life [h]
22 | CC1(F)CN(C(=O)Cn2cnc3sc(C#N)c(-c4ccc(F)c(Br)c4)c3c2=O)C1 | > 4

biological target: Translocator protein (Homo sapiens, UniProt P30536); assay: Inhibition of peripheral benzodiazepine receptor (unknown origin) by radioligand binding assay; details: not given
Sequence (P30536 whole entry): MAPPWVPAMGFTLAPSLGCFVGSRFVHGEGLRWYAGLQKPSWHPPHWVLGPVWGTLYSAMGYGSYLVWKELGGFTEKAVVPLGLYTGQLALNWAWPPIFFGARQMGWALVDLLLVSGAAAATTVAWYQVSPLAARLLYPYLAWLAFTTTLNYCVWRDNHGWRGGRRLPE

Row | Structure (SMILES) | Ki [nM]
23 | C#Cc1sc2ncn(CC(=O)N3CC(C)(F)C3)c(=O)c2c1-c1ccc(F)c(Br)c1 | 550

test system: not listed separately; assay: Stability in rat plasma assessed as half life; details: not given

Row | Structure (SMILES) | half-life [h]
24 | CC1(F)CN(C(=O)Cn2cnc3sc(C#N)c(-c4ccc(F)c(Br)c4)c3c2=O)C1 | > 4

biological target: Glutamate receptor ionotropic, NMDA 2C (Rattus norvegicus, UniProt P35439+Q00961); assay: not given; details: not given
Sequence (Q00961 whole entry, one chain of several): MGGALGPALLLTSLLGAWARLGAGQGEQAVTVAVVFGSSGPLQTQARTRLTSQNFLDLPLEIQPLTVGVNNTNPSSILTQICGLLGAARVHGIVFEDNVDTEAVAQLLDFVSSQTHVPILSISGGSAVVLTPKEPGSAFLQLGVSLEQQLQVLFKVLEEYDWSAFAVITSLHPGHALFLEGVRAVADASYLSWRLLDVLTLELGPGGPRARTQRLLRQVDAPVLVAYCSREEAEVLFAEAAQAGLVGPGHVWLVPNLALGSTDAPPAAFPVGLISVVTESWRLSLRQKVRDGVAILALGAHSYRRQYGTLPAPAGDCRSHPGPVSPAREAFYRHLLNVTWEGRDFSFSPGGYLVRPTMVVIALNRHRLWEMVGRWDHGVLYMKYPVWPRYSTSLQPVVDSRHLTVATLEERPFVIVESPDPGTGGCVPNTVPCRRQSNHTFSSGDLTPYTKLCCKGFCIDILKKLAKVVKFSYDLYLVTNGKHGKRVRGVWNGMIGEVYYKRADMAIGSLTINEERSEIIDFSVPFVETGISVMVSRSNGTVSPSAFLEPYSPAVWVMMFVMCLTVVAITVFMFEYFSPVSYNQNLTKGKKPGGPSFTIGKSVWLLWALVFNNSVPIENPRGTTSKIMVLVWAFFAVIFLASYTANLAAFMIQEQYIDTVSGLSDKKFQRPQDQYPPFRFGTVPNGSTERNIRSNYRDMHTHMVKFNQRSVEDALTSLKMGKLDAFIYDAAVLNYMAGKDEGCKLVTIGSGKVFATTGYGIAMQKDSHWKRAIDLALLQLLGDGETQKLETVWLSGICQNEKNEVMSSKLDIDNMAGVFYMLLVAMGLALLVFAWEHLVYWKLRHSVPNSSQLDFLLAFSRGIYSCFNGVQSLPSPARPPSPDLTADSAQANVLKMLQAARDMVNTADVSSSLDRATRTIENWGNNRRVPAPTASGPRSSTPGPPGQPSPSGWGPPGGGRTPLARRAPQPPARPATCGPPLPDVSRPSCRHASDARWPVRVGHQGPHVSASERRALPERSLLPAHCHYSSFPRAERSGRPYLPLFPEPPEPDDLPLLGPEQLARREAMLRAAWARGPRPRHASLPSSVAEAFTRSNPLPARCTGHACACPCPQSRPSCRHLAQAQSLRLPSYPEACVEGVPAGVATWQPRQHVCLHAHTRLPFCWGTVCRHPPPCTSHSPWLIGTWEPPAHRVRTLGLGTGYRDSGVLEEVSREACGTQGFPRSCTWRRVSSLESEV

Row | Structure (SMILES) | EC50 [nM]
25 | Cc1sc2ncn(CC(=O)N3CC(C)(F)C3)c(=O)c2c1-c1ccc2c(c1)OC(F)(F)O2 | 13000
26 | Cc1sc2ncn(CC(=O)N3CC(C)(F)C3)c(=O)c2c1-c1cc(F)cc(Cl)c1 | 9400
27 | Cc1sc2ncn(CC(=O)N3CCC(C)C3)c(=O)c2c1-c1cccc(Br)c1 (stereo not drawn) | 6600
28 | Cc1sc2ncn(CC(=O)N3CC(C)(F)C3)c(=O)c2c1-c1ccc(F)c(Cl)c1 | 1200
29 | CCC1(F)CN(C(=O)Cn2cnc3sc(C)c(-c4cccc(Br)c4)c3c2=O)C1 | 2400
30 | CCCC1(F)CN(C(=O)Cn2cnc3sc(C)c(-c4cccc(Br)c4)c3c2=O)C1 | 13000
31 | CC1(F)CN(C(=O)Cn2cnc3sc(C(F)(F)F)c(-c4ccc(F)c(Br)c4)c3c2=O)C1 | 3200
32 | Cc1sc2ncn(CC(=O)N3CC(C)(F)C3)c(=O)c2c1-c1cccc(Br)c1 | 2000
33 | Cc1sc2ncn(CC(=O)N3CC(C)(F)C3)c(=O)c2c1-c1cccc(Cl)c1 | 2200
34 | CC1(F)CN(C(=O)Cn2cnc3sc(C#N)c(-c4ccc(F)c(Br)c4)c3c2=O)C1 | 940
35 | Cc1sc2ncn(CC(=O)N3CC(C)(F)C3)c(=O)c2c1-c1cccc(C(F)(F)F)c1 | 2200
36 | Cc1sc2ncn(CC(=O)N3CC(C)(F)C3)c(=O)c2c1-c1cc(Cl)ccc1F | 3900
37 | C#Cc1sc2ncn(CC(=O)N3CC(C)(F)C3)c(=O)c2c1-c1ccc(F)c(Br)c1 | 820
38 | Cc1sc2ncn(CC(=O)N3CC(C)(C)C3)c(=O)c2c1-c1cccc(Br)c1 | 5300
39 | Cc1sc2ncn(CC(=O)N3CC(F)(C4CC4)C3)c(=O)c2c1-c1cccc(Br)c1 | 3700
40 | Cc1sc2ncn(CC(=O)N3CC(C)(F)C3)c(=O)c2c1-c1ccc(F)c(OC(C)C)c1 | 5200
41 | Cc1sc2ncn(CC(=O)N3CCC(F)(F)C3)c(=O)c2c1-c1cccc(Br)c1 | 6700
42 | Cc1sc2ncn(CC(=O)N3CCC(C)(F)C3)c(=O)c2c1-c1cccc(Br)c1 (stereo not drawn) | 9100

test system: not listed separately; assay: Kinetic solubility of compound in PBS at pH 7.3 by nephelometry; details: not given

Row | Structure (SMILES) | solubility kinetic [µM]
43 | CC1(F)CN(C(=O)Cn2cnc3sc(C#N)c(-c4ccc(F)c(Br)c4)c3c2=O)C1 | 45 (≈ 21.6 µg/mL)

test system: not listed separately; assay: Apparent permeability in MDCK-MDR1 cells; details: dog

Row | Structure (SMILES) | Papp [×10⁻⁶ cm/s]
44 | CC1(F)CN(C(=O)Cn2cnc3sc(C#N)c(-c4ccc(F)c(Br)c4)c3c2=O)C1 | 9.36

test system: not listed separately; assay: in vitro; details: human, liver microsomes
Description: Intrinsic clearance in human liver microsomes at 3 uM preincubated for 5 mins followed by NADPH addition measured up to 30 mins by LC-MS/MS analysis

Row | Structure (SMILES) | microsomal CLint at 0.5 h, 3 µM [µL/min/mg]
45 | CC1(F)CN(C(=O)Cn2cnc3sc(C#N)c(-c4ccc(F)c(Br)c4)c3c2=O)C1 | 16

test system: not listed separately; assay: Stability in human plasma assessed as half life; details: not given

Row | Structure (SMILES) | half-life [h]
46 | CC1(F)CN(C(=O)Cn2cnc3sc(C#N)c(-c4ccc(F)c(Br)c4)c3c2=O)C1 | > 4

biological target: Glutamate receptor ionotropic, NMDA 2C (Rattus norvegicus, UniProt Q00961); assay: not given; details: oocyte
Sequence (Q00961 whole entry): as the sequence (Q00961 whole entry, one chain of several) above

Row | Structure (SMILES) | EC50
47 | C#CC1(F)CN(C(=O)Cn2cnc3sc(C)c(-c4cccc(Br)c4)c3c2=O)C1 | Not_active
48 | Cc1sc2ncn(CC(=O)N3CC[C@@H](O)C3)c(=O)c2c1-c1cccc(Br)c1 | Not_active

biological target: Glutamate receptor ionotropic, NMDA 2B (Rattus norvegicus, UniProt Q00960); assay: not given; details: oocyte
Sequence (Q00960 whole entry): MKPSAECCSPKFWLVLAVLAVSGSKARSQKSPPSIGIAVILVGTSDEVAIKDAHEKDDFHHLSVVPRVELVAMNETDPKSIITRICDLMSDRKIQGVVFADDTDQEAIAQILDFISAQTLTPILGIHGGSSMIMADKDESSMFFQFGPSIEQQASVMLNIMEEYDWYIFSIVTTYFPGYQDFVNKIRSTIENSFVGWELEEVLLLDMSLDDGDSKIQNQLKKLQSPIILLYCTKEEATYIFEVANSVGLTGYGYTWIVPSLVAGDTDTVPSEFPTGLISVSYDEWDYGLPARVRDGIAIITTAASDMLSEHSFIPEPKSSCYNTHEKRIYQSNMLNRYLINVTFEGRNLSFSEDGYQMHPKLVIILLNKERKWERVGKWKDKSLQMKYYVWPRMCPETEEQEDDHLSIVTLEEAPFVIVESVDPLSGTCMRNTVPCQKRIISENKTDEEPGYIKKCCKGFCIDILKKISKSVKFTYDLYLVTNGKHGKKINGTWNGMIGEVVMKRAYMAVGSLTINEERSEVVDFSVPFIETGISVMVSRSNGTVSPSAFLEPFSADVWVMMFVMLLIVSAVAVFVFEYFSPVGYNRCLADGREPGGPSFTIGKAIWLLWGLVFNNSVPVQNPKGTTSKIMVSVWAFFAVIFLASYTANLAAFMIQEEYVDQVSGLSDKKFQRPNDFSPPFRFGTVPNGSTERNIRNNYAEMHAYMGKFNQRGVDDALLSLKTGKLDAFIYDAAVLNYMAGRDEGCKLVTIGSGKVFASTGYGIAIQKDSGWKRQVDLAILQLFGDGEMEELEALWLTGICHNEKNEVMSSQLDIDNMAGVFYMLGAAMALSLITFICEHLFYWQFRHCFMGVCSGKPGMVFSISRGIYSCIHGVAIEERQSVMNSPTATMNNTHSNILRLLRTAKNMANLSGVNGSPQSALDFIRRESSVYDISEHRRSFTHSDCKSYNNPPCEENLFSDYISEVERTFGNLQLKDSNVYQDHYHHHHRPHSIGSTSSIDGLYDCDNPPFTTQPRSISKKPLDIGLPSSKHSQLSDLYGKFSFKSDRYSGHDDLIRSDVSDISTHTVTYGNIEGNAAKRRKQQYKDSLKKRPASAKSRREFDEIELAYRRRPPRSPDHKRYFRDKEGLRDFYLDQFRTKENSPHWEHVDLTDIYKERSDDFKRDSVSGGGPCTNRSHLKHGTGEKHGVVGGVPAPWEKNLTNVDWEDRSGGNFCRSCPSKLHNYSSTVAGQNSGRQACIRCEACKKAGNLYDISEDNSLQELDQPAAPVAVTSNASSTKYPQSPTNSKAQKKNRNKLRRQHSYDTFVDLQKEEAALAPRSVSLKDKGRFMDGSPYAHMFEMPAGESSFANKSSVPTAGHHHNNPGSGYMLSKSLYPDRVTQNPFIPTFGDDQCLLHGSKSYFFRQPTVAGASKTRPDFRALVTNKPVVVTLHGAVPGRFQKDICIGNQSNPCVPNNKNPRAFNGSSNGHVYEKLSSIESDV

Row | Structure (SMILES) | EC50
49 | C#CC1(F)CN(C(=O)Cn2cnc3sc(C)c(-c4cccc(Br)c4)c3c2=O)C1 | Not_active
50 | CCCC1(F)CN(C(=O)Cn2cnc3sc(C)c(-c4cccc(Br)c4)c3c2=O)C1 | Not_active
51 | Cc1sc2ncn(CC(=O)N3CC[C@@H](O)C3)c(=O)c2c1-c1cccc(Br)c1 | Not_active

biological target: Glutamate receptor ionotropic, NMDA 2B (Rattus norvegicus, UniProt P35439+Q00960); assay: not given; details: not given
Sequence (Q00960 whole entry, one chain of several): as the sequence (Q00960 whole entry) above

Row | Structure (SMILES) | EC50 [nM]
52 | Cc1sc2ncn(CC(=O)N3CC(C)(F)C3)c(=O)c2c1-c1ccc2c(c1)OC(F)(F)O2 | 2800
53 | Cc1sc2ncn(CC(=O)N3CC(C)(F)C3)c(=O)c2c1-c1cc(F)cc(Cl)c1 | 1600
54 | Cc1sc2ncn(CC(=O)N3CCC(C)C3)c(=O)c2c1-c1cccc(Br)c1 (stereo not drawn) | 2500
55 | Cc1sc2ncn(CC(=O)N3CC(C)(F)C3)c(=O)c2c1-c1ccc(F)c(Cl)c1 | 700
56 | CCC1(F)CN(C(=O)Cn2cnc3sc(C)c(-c4cccc(Br)c4)c3c2=O)C1 | 970
57 | CC1(F)CN(C(=O)Cn2cnc3sc(C(F)(F)F)c(-c4ccc(F)c(Br)c4)c3c2=O)C1 | 2300
58 | Cc1sc2ncn(CC(=O)N3CC(C)(F)C3)c(=O)c2c1-c1cccc(Br)c1 | 780
59 | Cc1sc2ncn(CC(=O)N3CC(C)(F)C3)c(=O)c2c1-c1cccc(Cl)c1 | 1200
60 | CC1(F)CN(C(=O)Cn2cnc3sc(C#N)c(-c4ccc(F)c(Br)c4)c3c2=O)C1 | 360
61 | Cc1sc2ncn(CC(=O)N3CC(C)(F)C3)c(=O)c2c1-c1cccc(C(F)(F)F)c1 | 1100
62 | Cc1sc2ncn(CC(=O)N3CC(C)(F)C3)c(=O)c2c1-c1cc(Cl)ccc1F | 1500
63 | C#Cc1sc2ncn(CC(=O)N3CC(C)(F)C3)c(=O)c2c1-c1ccc(F)c(Br)c1 | 570
64 | Cc1sc2ncn(CC(=O)N3CC(C)(C)C3)c(=O)c2c1-c1cccc(Br)c1 | 2800
65 | Cc1sc2ncn(CC(=O)N3CC(F)(C4CC4)C3)c(=O)c2c1-c1cccc(Br)c1 | 2000
66 | Cc1sc2ncn(CC(=O)N3CC(C)(F)C3)c(=O)c2c1-c1ccc(F)c(OC(C)C)c1 | 2000
67 | Cc1sc2ncn(CC(=O)N3CCC(F)(F)C3)c(=O)c2c1-c1cccc(Br)c1 | 2600
68 | Cc1sc2ncn(CC(=O)N3CCC(C)(F)C3)c(=O)c2c1-c1cccc(Br)c1 (stereo not drawn) | 2900
